Data as given in patent US12336977B2, “Nitenin analogue compounds and their use in the treatment of chronic and acute pain” (SEA4US-BIOTECNOLOGIA E RECURSOS MARINHOS, LDA., priority 2019, dated 2025).
Entries after “also recorded” stand apart in the source; their conditions may differ.

How the values were obtained:
hKv1.3 = molecular target: T1, hKv1.3 (Homo sapiens, UniProt P22001); assay: voltage-clamp of K+ currents in CHO-K1 cells expressing hKv1.3; type: cell-based; conditions: inhibition measured at end of 1000 ms pulse, read-out: IC50 of K+ current inhibition, hKv1.3
T1 construct: expressed in transfected cells; host or cells: CHO-K1
T1 sequence (P22001 whole entry): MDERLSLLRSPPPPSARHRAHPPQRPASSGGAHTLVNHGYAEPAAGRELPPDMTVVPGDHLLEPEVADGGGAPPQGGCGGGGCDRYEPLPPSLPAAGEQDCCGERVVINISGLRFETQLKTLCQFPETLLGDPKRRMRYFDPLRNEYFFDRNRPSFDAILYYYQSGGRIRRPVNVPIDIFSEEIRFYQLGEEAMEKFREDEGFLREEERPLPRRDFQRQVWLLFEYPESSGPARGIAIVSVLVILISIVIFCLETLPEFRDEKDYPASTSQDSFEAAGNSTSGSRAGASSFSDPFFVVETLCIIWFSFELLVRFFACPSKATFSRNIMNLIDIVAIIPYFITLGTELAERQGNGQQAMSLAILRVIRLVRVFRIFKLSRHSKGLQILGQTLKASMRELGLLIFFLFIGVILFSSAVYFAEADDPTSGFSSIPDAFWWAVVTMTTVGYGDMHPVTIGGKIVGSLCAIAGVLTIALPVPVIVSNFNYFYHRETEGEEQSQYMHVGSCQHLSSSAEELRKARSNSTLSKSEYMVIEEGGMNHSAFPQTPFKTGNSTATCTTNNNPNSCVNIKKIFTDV
Excerpt: As measure of Ifast, peak current was used, whereas, as a measure of Islow, the current value was obtained at the end of the command pulse (see FIG. 1). Values are expressed as mean±S.E.M. For Islow, a dual phase relationship can be observed. […] Kv1.3 channel is the most sensitive channel (around 6-fold more sensitive in comparison to the “next most sensitive one”, the Kv1.2) Kv1.2, Kv1.1 and Kv1.6 show similar, intermediate sensitivities to nitenin. In opposition, Kv1.4 is the less sensitive (˜31 times less sensitive).
Additionally, drug sensitivity to different voltage-activated channels was assessed by studying the drug effect on currents recorded from chinese hamster ovary (CHO) cells stably transfected with different human Kv channel subunits (Kv1.1, Kv1.2, Kv1.3, Kv1.4 and Kv1.6).
The higher sensitivity of nitenin to Islow (rather than Ifast) and the nature of the nitenin sensitive current (see nitenin sensitive current in FIG. 1.b) urged to understand which K^+ channel(s) do underline Islow. By considering which Kv channel subunits are known to be expressed in DRG, and the biophysical nature of the nitenin-sensitive current, nitenin was tested on whole-cell currents recorded from CHO cells expressing hKv1.1, hKv1.2, hKv1.3, hKv1.4 and hKv1.6. […] Current inhibition was measured at the end of the 1000 ms pulse.

[1] = system: K+ currents of small diameter dorsal-root ganglion neuron; assay: voltage dependence of steady state of inactivation of K+ currents in sdDRGn; type: cell-based, rat
Excerpt: (§1) One can observe a shift to hyperpolarized values during the nitenin treatment. The relationships were better fit with the sum of two Boltzmann functions, showing that in both conditions there are two components: one more hyperpolarized component (component 1) and one other more depolarized component (component 2).
as §1, with “treatment with the compound of formula VI.” for “nitenin treatment.”
as §1, with “treatment with the compound of formula VII.” for “nitenin treatment.”
as §1, with “treatment with the compound of formula VIII.” for “nitenin treatment.”
For the electrophysiological recordings of the ex vivo material, voltage-clamp recordings were performed on neurons isolated from rat DRGs (and TGs). Recordings were performed from the soma that often contained the proximal fraction of axon, 1 hour after the end of the cell isolation process (includes enzymatic and mechanical treatment).

[2] = system: CCI rats (chronic constriction of the sciatic nerve of Wistar rats); assay: neuropathic pain rat model CCI, von Frey filaments; type: in vivo
Excerpt: FIG. 4 illustrates behavioral readouts as measures of pain during treatment with nitenin on a Neuropatic pain rat model CCI (Chronic constriction injury). Typical experiment using a group of Wistar rats subjected to four unilateral sciatic nerve constrictions. Values refer to the mechanical sensitivity to stimulation using calibrated von Frey Filaments, and consequently reflecting hyperalgesia when hypersensitive (black filled markers—ipsilateral, operated leg; Open markers—contralateral, uninjured leg). Dotted line refers to the average value of the ipsilateral paw prior to surgery. a) Induction of the model showing that 3 days after operation, the mechanical sensitivity of the ipsilateral limb increases markedly, whereas the one associated with the contralateral leg remained unchanged, similar to baseline values. This tendency is maintained during 26 days after surgery, day that treatment with nitenin was performed (circle with dotted line). b) Effect of intravenous injection of nitenin (estimated plasma concentration of 1 μg/ml) on the mechanical sensitivity of the ipsilateral leg. For clarity, the data of the contralateral limb is not shown but it remains unaltered. […]
For efficacy studies, nociception was assessed in all animals from all pain models by regular behavioural monitoring, by quantifying the sensitivity to mechanical stimuli with Von Frey filaments, and consequently reflecting hyperalgesia when hypersensitive. […] Intraperitoneal administration was tested in CFA rats (23 days after CFA injection), with 10 times the nitenin quantity administered by I.V. injections. […]

C/C(=C\C1C/C(=C/CCc2ccoc2)C(=O)O1)CCCc1ccoc1 (stereo not shown) [nitenin]
IC50 (hKv1.3): 0.19 µM
effect on I-V curves of the voltage dependence of inactivation [1]: shifts to more hyperpolarised potentials
Vh2 (voltage of half maximum current, component 2) of steady state inactivation ([1]; nitenin 0.1 μg/ml, 0.29 μM, neuron from injured side of CCI rat 28 days after surgery, control −26.3): −47.0 mV
Vh1 (voltage of half maximum current, component 1) of steady state inactivation ([1]; nitenin 0.1 μg/ml, 0.29 μM, neuron from injured side of CCI rat 28 days after surgery, control −73.3): −95.3 mV
behavioural scores of the contralateral (uninjured) paw ([2]; I.V. 1 μg/mL of blood): no changes
mechanical sensitivity of ipsilateral paw (von Frey) ([2]; I.V. 1 μg/mL of blood ~0.06 mg/Kg, acute (3 days) and chronic (22 to 31 days)): reaching values not different to those obtained during baseline; also recorded: noticeable decrease of sensitivity to mechanical stimuli
time of maximum effect after injection ([2]; intravenous, estimated plasma concentration 1 μg/ml, 26 days after surgery): ~1 h
